{"source": "paper PMC5668625", "about": "(Biochemistry and Biophysics Reports, 2015)", "biological_target": "human phosphoglucose isomerase (hPGI) / autocrine motility factor (Homo sapiens, UniProt P06744)", "assay": "end-point isomerization kinetics", "assay_type": "biochemical"}
{"smiles": "O=C(O)[C@H](O)[C@@H](O)[C@H](O)[C@H](O)COP(=O)(O)O", "note": "[6P-GA, 6-phosphogluconate]", "values": [{"measurement": "Ki", "value": 12, "unit": "µM"}]}
